Measured values: patent publication US20260285850A1, “SUBSTITUTED OXAZOLIDINONES AND IMIDAZOLINONES AS HERBICIDES” (FMC CORPORATION, priority 2023, published 2026)

Assays:
Assay type in all cases: in vivo
kochia (Bassia scoparia) [1] = test: Test A postemergence application, visual injury rating 0-100
Outline: (§1)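 Compound in a non-phytotoxic, surfactant-containing solvent is applied either as a directed soil spray before seedlings emerge or onto emerged plants 2-10 cm tall; pots hold a loam-sand blend. Plants grow 10 days under greenhouse conditions and are rated by eye against untreated controls (0 no effect, 100 complete control).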

[2] = system: ragweed (common ragweed, Ambrosia artemisiifolia); test: as above
Outline: as §1

[3] = system: ryegrass, Italian (italian ryegrass, Lolium multiflorum); test: as above
Outline: as §1

[4] = system: horseweed (Erigeron canadensis); test: as above
Outline: as §1

[5] = system: wheat (Triticum aestivum); test: as above
Outline: as §1

[6] = system: oat, wild (wild oat, Avena fatua); test: as above
Outline: as §1

soybean (Glycine max) [7] = test: as above
Outline: as §1

[8] = system: blackgrass (Alopecurus myosuroides); test: as above
Outline: as §1

corn (Zea mays) [9] = test: as above
Outline: as §1

[10] = system: galium (catchweed bedstraw, Galium aparine); test: as above
Outline: as §1

[11] = system: barnyardgrass (Echinochloa crus-galli); test: as above
Outline: as §1

[12] = system: green foxtail (Setaria viridis); test: as above
Outline: as §1

[13] = system: palmer (palmer amaranth, palmer pigweed, Amaranthus palmeri); test: as above
Outline: as §1

[14] = system: barnyardgrass (Echinochloa crusgalli); test: Test B flooded paddy test, visual plant response rating 0-100; conditions: 250 g ai/ha, Flood, applied to paddy water, evaluated after 13 days
Outline: (§2)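 Treatment occurs at the 2-leaf stage by adding compound to floodwater standing 3 cm above the soil, a level kept for the whole test. Plants stay in the greenhouse 13 days before visual comparison with controls.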

[15] = system: ducksalad (Heteranthera limosa); test: as above; conditions: 250 g ai/ha, Flood, applied to paddy water, evaluated after 13 days
Outline: as §2

rice (Oryza sativa) = test: as above; conditions: 250 g ai/ha, Flood, applied to paddy water, evaluated after 13 days
Outline: as §2

[16] = system: sedge, umbrella (small-flower umbrella sedge, Cyperus difformis); test: as above; conditions: 250 g ai/ha, Flood, applied to paddy water, evaluated after 13 days
Outline: as §2

kochia (Bassia scoparia) [17] = test: Test A preemergence soil spray, visual injury rating 0-100; conditions: 10 days
Outline: as §1

[18] = system: ragweed (common ragweed, Ambrosia artemisiifolia); test: as above; conditions: 10 days
Outline: as §1

[19] = system: ryegrass, Italian (italian ryegrass, Lolium multiflorum); test: as above; conditions: 10 days
Outline: as §1

[20] = system: wheat (Triticum aestivum); test: as above; conditions: 10 days
Outline: as §1

[21] = system: oat, wild (wild oat, Avena fatua); test: as above; conditions: 10 days
Outline: as §1

soybean (Glycine max) [22] = test: as above; conditions: 10 days
Outline: as §1

[23] = system: blackgrass (Alopecurus myosuroides); test: as above; conditions: 10 days
Outline: as §1

corn (Zea mays) [24] = test: as above; conditions: 10 days
Outline: as §1

[25] = system: barnyardgrass (Echinochloa crus-galli); test: as above; conditions: 10 days
Outline: as §1

[26] = system: green foxtail (Setaria viridis); test: as above; conditions: 10 days
Outline: as §1

[27] = system: palmer (palmer amaranth, palmer pigweed, Amaranthus palmeri); test: as above; conditions: 10 days
Outline: as §1

[28] = 62 g ai/ha, postemergence, 10 days, 0 = no effect, 100 = complete control
[29] = Postemergence, 16 g ai/ha, greenhouse 10 days, 0 no effect, 100 complete control
[30] = 62 g ai/ha, 0 = no effect, 100 = complete control

**Q.** Which “Kochia plant response rating (0-100)” value (kochia (Bassia scoparia) [1]; [28]) does the source give for CC(C)COC(=O)C1=CCC(NC(=O)C2(C)CN(c3cc(Cl)cc(Cl)c3)C(=O)O2)C1 (stereo not shown) [Compound 156] here?
**A.** 80

**Q.** What about the “Kochia plant response rating (0 to 100 scale)” value (kochia (Bassia scoparia) [1]; [29]) of the same molecule?
**A.** 80

**Q.** What about the “Ragweed plant response rating (0-100)” value [2, 28] of the same molecule?
**A.** 50

**Q.** And the “Ragweed plant response rating (0 to 100 scale)” value [2, 29]?
**A.** 30

**Q.** And the “Ryegrass, Italian plant response rating (0-100)” value [3, 28]?
**A.** 70

**Q.** What about the “Ryegrass, Italian plant response rating (0 to 100 scale)” value [3, 29] of the same molecule?
**A.** 60

**Q.** And the “Horseweed plant response rating (0-100)” value [4, 28]?
**A.** 80

**Q.** And the “Horseweed plant response rating (0 to 100 scale)” value [4, 29]?
**A.** 30

**Q.** What about the “Wheat plant response rating (0-100)” value [5, 28] of the same molecule?
**A.** 70

**Q.** What about the “Wheat plant response rating (0 to 100 scale)” value [5, 29] of the same molecule?
**A.** 50

**Q.** What about the “Oat, Wild plant response rating (0-100)” value [6, 28] of the same molecule?
**A.** 70

**Q.** And the “Oat, Wild plant response rating (0 to 100 scale)” value [6, 29]?
**A.** 20

**Q.** And the “Soybean plant response rating (0-100)” value (soybean (Glycine max) [7]; [28])?
**A.** 60

**Q.** What about the “Soybean plant response rating (0 to 100 scale)” value (soybean (Glycine max) [7]; [29]) of the same molecule?
**A.** 50

**Q.** What about the “Blackgrass plant response rating (0-100)” value [8, 28] of the same molecule?
**A.** 90

**Q.** What about the “Blackgrass plant response rating (0 to 100 scale)” value [8, 29] of the same molecule?
**A.** 70

**Q.** And the “Corn plant response rating (0-100)” value (corn (Zea mays) [9]; [28])?
**A.** 100

**Q.** What about the “Corn plant response rating (0 to 100 scale)” value (corn (Zea mays) [9]; [29]) of the same molecule?
**A.** 90

**Q.** What about the “Galium plant response rating (0-100)” value [10, 28] of the same molecule?
**A.** 80

**Q.** What about the “Galium plant response rating (0 to 100 scale)” value [10, 29] of the same molecule?
**A.** 80

**Q.** What about the “Barnyardgrass plant response rating (0-100)” value [11, 28] of the same molecule?
**A.** 100

**Q.** What about the “Barnyardgrass plant response rating (0 to 100 scale)” value [11, 29] of the same molecule?
**A.** 100

**Q.** And the “Foxtail, Green plant response rating (0-100)” value [12, 28]?
**A.** 90

**Q.** What about the “Foxtail, Green plant response rating (0 to 100 scale)” value [12, 29] of the same molecule?
**A.** 80

**Q.** And the “Pigweed, Palmer plant response rating (0-100)” value [13, 28]?
**A.** 90

**Q.** And the “Pigweed, Palmer plant response rating (0 to 100 scale)” value [13, 29]?
**A.** 90

**Q.** And the “Plant response rating, Barnyardgrass (0 to 100 scale, 0 is no effect and 100 is complete control)” value [14]?
**A.** 55

**Q.** And the “Plant response rating, Ducksalad (0 to 100 scale, 0 is no effect and 100 is complete control)” value [15]?
**A.** 75

**Q.** And the “Plant response rating, Rice (0 to 100 scale, 0 is no effect and 100 is complete control)” value (rice (Oryza sativa))?
**A.** 45

**Q.** And the “Plant response rating, Sedge, Umbrella (0 to 100 scale, 0 is no effect and 100 is complete control)” value [16]?
**A.** 90

**Q.** What about the “Kochia plant response rating” value (kochia (Bassia scoparia) [17]; 16 g ai/ha, 0 to 100 scale) of the same molecule?
**A.** 20

**Q.** What about the “Kochia plant response rating (0-100)” value (kochia (Bassia scoparia) [17]; [30]) of the same molecule?
**A.** 70

**Q.** And the “Ragweed plant response rating” value ([18]; 16 g ai/ha, 0 to 100 scale)?
**A.** 0

**Q.** And the “Ragweed plant response rating (0-100)” value [18, 30]?
**A.** 0

**Q.** And the “Ryegrass, Italian plant response rating” value ([19]; 16 g ai/ha, 0 to 100 scale)?
**A.** 0

**Q.** What about the “Ryegrass, Italian plant response rating (0-100)” value [19, 30] of the same molecule?
**A.** 30

**Q.** And the “Wheat plant response rating” value ([20]; 16 g ai/ha, 0 to 100 scale)?
**A.** 10

**Q.** What about the “Wheat plant response rating (0-100)” value [20, 30] of the same molecule?
**A.** 50

**Q.** And the “Oat, Wild plant response rating” value ([21]; 16 g ai/ha, 0 to 100 scale)?
**A.** 0

**Q.** And the “Oat, Wild plant response rating (0-100)” value [21, 30]?
**A.** 0

**Q.** And the “Soybean plant response rating” value (soybean (Glycine max) [22]; 16 g ai/ha, 0 to 100 scale)?
**A.** 0

**Q.** What about the “Soybean plant response rating (0-100)” value (soybean (Glycine max) [22]; [30]) of the same molecule?
**A.** 0

**Q.** What about the “Blackgrass plant response rating” value ([23]; 16 g ai/ha, 0 to 100 scale) of the same molecule?
**A.** 0

**Q.** What about the “Blackgrass plant response rating (0-100)” value [23, 30] of the same molecule?
**A.** 30

**Q.** And the “Corn plant response rating” value (corn (Zea mays) [24]; 16 g ai/ha, 0 to 100 scale)?
**A.** 0

**Q.** What about the “Corn plant response rating (0-100)” value (corn (Zea mays) [24]; [30]) of the same molecule?
**A.** 50

**Q.** What about the “Barnyardgrass plant response rating” value ([25]; 16 g ai/ha, 0 to 100 scale) of the same molecule?
**A.** 0

**Q.** What about the “Barnyardgrass plant response rating (0-100)” value [25, 30] of the same molecule?
**A.** 50

**Q.** And the “Foxtail, Green plant response rating” value ([26]; 16 g ai/ha, 0 to 100 scale)?
**A.** 40

**Q.** And the “Foxtail, Green plant response rating (0-100)” value [26, 30]?
**A.** 90

**Q.** What about the “Pigweed, Palmer plant response rating” value ([27]; 16 g ai/ha, 0 to 100 scale) of the same molecule?
**A.** 20

**Q.** What about the “Pigweed, Palmer plant response rating (0-100)” value [27, 30] of the same molecule?
**A.** 80
